Measured values: ChEMBL document CHEMBL3885881, “DrugMatrix”

Organism: Rattus norvegicus
Assay: DrugMatrix - Regimen: Daily Repeat
Type: toxicity, organism-based, Sprague-Dawley
Design: regimen Daily Repeat, gender Male, age 6-8 weeks
Settings: in vivo, sc, route subcutaneous, […]; for ABSOLUTE BASOPHIL / ABSOLUTE EOSINOPHIL / ABSOLUTE LYMPHOCYTE / ABSOLUTE MONOCYTE / ABSOLUTE SEGMENTED NEUTROPHIL / BASOPHIL / EOSINOPHIL / ERYTHROCYTE COUNT / HEMATOCRIT / HEMOGLOBIN / LEUKOCYTE COUNT / LYMPHOCYTE / MEAN CORPUSCULAR HEMOGLOBIN / MEAN CORPUSCULAR HEMOGLOBIN CONCENTRATION / MEAN CORPUSCULAR VOLUME / MONOCYTE / NEUTROPHIL / NUCLEATED RED BLOOD CELLS / PLATELET COUNT: tissue Blood; for ALANINE AMINOTRANSFERASE / ALBUMIN / ALKALINE PHOSPHATASE / ASPARTATE AMINOTRANSFERASE / BLOOD UREA NITROGEN / CARBON DIOXIDE / CHLORIDE / CHOLESTEROL / CREATINE PHOSPHOKINASE / CREATININE / GLUCOSE / LACTATE DEHYDROGENASE / LIPASE / PHOSPHORUS / POTASSIUM / SODIUM / TOTAL BILIRUBIN / TOTAL PROTEIN / URIC ACID: tissue Plasma
[1] = 50 mg/kg, 120 h, dose level Low, time 5 day
[2] = 201 mg/kg, 72 h, dose level High, time 3 day
[3] = 201 mg/kg, 120 h, dose level High, time 5 day

CCCCOC(=O)c1ccc(N)cc1 [BUTAMBEN]
ABSOLUTE BASOPHIL [1]: 0 CELLS/uL | ABSOLUTE EOSINOPHIL [1]: 200.67 CELLS/uL | ABSOLUTE LYMPHOCYTE [1]: 13363.67 CELLS/uL | ABSOLUTE MONOCYTE [1]: 123.33 CELLS/uL | ABSOLUTE SEGMENTED NEUTROPHIL [1]: 2512.33 CELLS/uL | BASOPHIL [1]: 0% | EOSINOPHIL [1]: 1.33% | ERYTHROCYTE COUNT [1]: 5.82 x10E6/uL | HEMATOCRIT [1]: 36.47% | HEMOGLOBIN [1]: 13.23 G/DL | LEUKOCYTE COUNT [1]: 16.2 x10E3/uL | LYMPHOCYTE [1]: 82.33% | MEAN CORPUSCULAR HEMOGLOBIN [1]: 22.8 pg | MEAN CORPUSCULAR HEMOGLOBIN CONCENTRATION [1]: 36.3 G/DL | MEAN CORPUSCULAR VOLUME [1]: 62.77 fL | MONOCYTE [1]: 0.67% | NEUTROPHIL [1]: 15.67% | NUCLEATED RED BLOOD CELLS [1]: 0 /100WBC | PLATELET COUNT [1]: 1424.33 x10E3/uL | ALANINE AMINOTRANSFERASE [1]: 47.67 u/L | ALBUMIN [1]: 4.3 G/DL | ALKALINE PHOSPHATASE [1]: 349 u/L | ASPARTATE AMINOTRANSFERASE [1]: 78.67 u/L | BLOOD UREA NITROGEN [1]: 19.67 mg/dL | CARBON DIOXIDE [1]: 23.67 mmol/L | CHLORIDE [1]: 105.67 MEQ/L | CHOLESTEROL [1]: 76.67 mg/dL | CREATINE PHOSPHOKINASE [1]: 340 u/L | CREATININE [1]: 0.21 mg/dL | GLUCOSE [1]: 179.67 mg/dL | LACTATE DEHYDROGENASE [1]: 100.67 u/L | LIPASE [1]: 8.33 u/L | PHOSPHORUS [1]: 12.87 mg/dL | POTASSIUM [1]: 6.56 MEQ/L | SODIUM [1]: 145.27 MEQ/L | TOTAL BILIRUBIN [1]: 0.23 mg/dL | TOTAL PROTEIN [1]: 6.03 G/DL | URIC ACID [1]: 1.9 mg/dL | ABSOLUTE BASOPHIL [2]: 0 CELLS/uL | ABSOLUTE EOSINOPHIL [2]: 70 CELLS/uL | ABSOLUTE LYMPHOCYTE [2]: 16456 CELLS/uL | ABSOLUTE MONOCYTE [2]: 124.67 CELLS/uL | ABSOLUTE SEGMENTED NEUTROPHIL [2]: 2816 CELLS/uL | BASOPHIL [2]: 0% | EOSINOPHIL [2]: 0.33% | ERYTHROCYTE COUNT [2]: 5.58 x10E6/uL | HEMATOCRIT [2]: 36% | HEMOGLOBIN [2]: 13.23 G/DL | LEUKOCYTE COUNT [2]: 19.47 x10E3/uL | LYMPHOCYTE [2]: 84.67% | MEAN CORPUSCULAR HEMOGLOBIN [2]: 23.77 pg | MEAN CORPUSCULAR HEMOGLOBIN CONCENTRATION [2]: 36.8 G/DL | MEAN CORPUSCULAR VOLUME [2]: 64.57 fL | MONOCYTE [2]: 0.67% | NEUTROPHIL [2]: 14.33% | NUCLEATED RED BLOOD CELLS [2]: 0.67 /100WBC | PLATELET COUNT [2]: 1165.33 x10E3/uL | ALANINE AMINOTRANSFERASE [2]: 57 u/L | ALBUMIN [2]: 4.07 G/DL | ALKALINE PHOSPHATASE [2]: 412 u/L | ASPARTATE AMINOTRANSFERASE [2]: 89.67 u/L | BLOOD UREA NITROGEN [2]: 16.33 mg/dL | CARBON DIOXIDE [2]: 27.67 mmol/L | CHLORIDE [2]: 103 MEQ/L | CHOLESTEROL [2]: 70.67 mg/dL | CREATINE PHOSPHOKINASE [2]: 345 u/L | CREATININE [2]: 0.18 mg/dL | GLUCOSE [2]: 160.33 mg/dL | LACTATE DEHYDROGENASE [2]: 218 u/L | LIPASE [2]: 8.33 u/L | PHOSPHORUS [2]: 12.83 mg/dL | POTASSIUM [2]: 6.76 MEQ/L | SODIUM [2]: 143.8 MEQ/L | TOTAL BILIRUBIN [2]: 0.23 mg/dL | TOTAL PROTEIN [2]: 5.8 G/DL | URIC ACID [2]: 1.53 mg/dL | ABSOLUTE BASOPHIL [3]: 0 CELLS/uL | ABSOLUTE EOSINOPHIL [3]: 338.33 CELLS/uL | ABSOLUTE LYMPHOCYTE [3]: 17074 CELLS/uL | ABSOLUTE MONOCYTE [3]: 209.67 CELLS/uL | ABSOLUTE SEGMENTED NEUTROPHIL [3]: 3344.67 CELLS/uL | BASOPHIL [3]: 0% | EOSINOPHIL [3]: 1.67% | ERYTHROCYTE COUNT [3]: 5.22 x10E6/uL | HEMATOCRIT [3]: 33.53% | HEMOGLOBIN [3]: 12.47 G/DL | LEUKOCYTE COUNT [3]: 20.97 x10E3/uL | LYMPHOCYTE [3]: 81.33% | MEAN CORPUSCULAR HEMOGLOBIN [3]: 23.9 pg | MEAN CORPUSCULAR HEMOGLOBIN CONCENTRATION [3]: 37.17 G/DL | MEAN CORPUSCULAR VOLUME [3]: 64.37 fL | MONOCYTE [3]: 1% | NEUTROPHIL [3]: 16% | NUCLEATED RED BLOOD CELLS [3]: 0 /100WBC | PLATELET COUNT [3]: 1321.67 x10E3/uL | ALANINE AMINOTRANSFERASE [3]: 47 u/L | ALBUMIN [3]: 4.17 G/DL | ALKALINE PHOSPHATASE [3]: 353 u/L | ASPARTATE AMINOTRANSFERASE [3]: 79.67 u/L | BLOOD UREA NITROGEN [3]: 18 mg/dL | CARBON DIOXIDE [3]: 26.67 mmol/L | CHLORIDE [3]: 104.33 MEQ/L | CHOLESTEROL [3]: 51 mg/dL | CREATINE PHOSPHOKINASE [3]: 415 u/L | CREATININE [3]: 0.21 mg/dL | GLUCOSE [3]: 163 mg/dL | LACTATE DEHYDROGENASE [3]: 103 u/L | LIPASE [3]: 8 u/L | PHOSPHORUS [3]: 12.37 mg/dL | POTASSIUM [3]: 6.72 MEQ/L | SODIUM [3]: 144.47 MEQ/L | TOTAL BILIRUBIN [3]: 0.37 mg/dL | TOTAL PROTEIN [3]: 6.07 G/DL | URIC ACID [3]: 1.93 mg/dL
